Source: patent US20250313572A1, “MACROCYCLIC MCL-1 INHIBITORS AND METHODS OF USE” (AbbVie Inc., priority 2017, published 2025)
Like-named read-outs stand apart in the source and are kept apart here.

Columns and labels:
[1] = target: GST-MCL-1 (Homo sapiens, UniProt Q07820); assay: TR-FRET MCL-1 binding assay (competition with probe F-Bak)
Procedure, shortened: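 Displacement of F-Bak from GST-MCL-1 is detected by time-resolved FRET with a Tb-labelled anti-GST antibody, with excitation 340/35 nm and emission 520/525 and 495/510 nm, after 2 hours at room temperature. Compounds were titrated in 11 three-fold steps starting at 25 μM final, in buffer alone or in 10% HS.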

[2] = system: AMO-1 human multiple myeloma tumor cell line; assay: AMO-1 cell viability assay (CellTiter-Glo, 24 hours); assay type: cell-based; conditions: Homo sapiens, AMO1, 24 h, read-out: AMO-1 Viability IC50 (μM, 10% FBS), 10% FBS, 24 hours of compound treatment
[3] = system: NCI-H929 human multiple myeloma tumor cell line; assay: NCI-H929 cell viability assay (CellTiter-Glo, 24 hours); assay type: cell-based; conditions: Homo sapiens, NCI-H929, 24 h, read-out: H929 Viability IC50 (μM, 10% FBS), 10% FBS, 24 hours of compound treatment
Experimental: Each concentration was tested in duplicate at least 3 independent times. A luminescent signal proportional to the number of viable cells following 24 hours of compound treatment was determined using the CellTiter-Glo® Luminescent Cell Viability Assay according to the manufacturer's recommendations (Promega Corp., Madison, WI). The plates were read in a Perkin Elmer Envision using a Luminescence protocol. To generate dose response curves the data is normalized to percent viability by setting the averages of the staurosporine (10 μM) and DMSO only control wells to 0% and 100% viability respectively.

[4] = MCL-1 Binding Ki (nM, 10% HS), in the presence of 10% HS (human serum)
[5] = without HS, read-out: MCL-1 Binding Ki

Sequence of GST-MCL-1 (Q07820 whole entry): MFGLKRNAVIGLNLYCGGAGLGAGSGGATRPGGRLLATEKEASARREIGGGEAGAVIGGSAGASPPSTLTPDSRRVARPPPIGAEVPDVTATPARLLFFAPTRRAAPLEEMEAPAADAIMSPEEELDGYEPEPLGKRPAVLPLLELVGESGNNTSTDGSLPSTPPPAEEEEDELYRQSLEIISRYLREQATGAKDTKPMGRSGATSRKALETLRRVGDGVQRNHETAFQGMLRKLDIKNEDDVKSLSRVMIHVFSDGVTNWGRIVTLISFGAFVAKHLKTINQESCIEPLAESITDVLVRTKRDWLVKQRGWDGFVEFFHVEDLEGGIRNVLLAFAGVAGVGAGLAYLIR

| Compound | Ki [1, 4] [nM] | Ki [1, 5] [nM] | IC50 [2] [µM] | IC50 [3] [µM] |
| --- | --- | --- | --- | --- |
| CO[C@@H]1CO[C@H]2[C@@H]1OC[C@H]2Oc1nccc(COc2ccc3cc2C[C@H](C(=O)O)Oc2ncnc4sc(-c5ccc(F)cc5)c(c24)-c2c(C)c(Cl)c(c(Cl)c2C)O[C@H](CN2CCN(C)CC2)CO3)n1 [Example 146, (7R,16R)-19,23-dichloro-1-(4-fluorophenyl)-10-[(2-{[(3R,3aR,6R,6aR)-6-methoxyhexahydrofuro[3,2-b]furan-3-yl]oxy}pyrimidin-4-yl)methoxy]-20,22-dimethyl-16-[(4-methylpiperazin-1-yl)methyl]-7,8,15,16-tetrahydro-18,21-etheno-13,9-(metheno)-6,14,17-trioxa-2-thia-3,5-diazacyclononadeca[1,2,3-cd]indene-7-carboxylic Acid] | 0.041 | 0.001 | 0.00223 | 0.00408 |
| COCCOCCOCC1(F)CC=C(c2nccc(COc3ccc4cc3C[C@H](C(=O)O)Oc3ncnc5sc(-c6ccc(F)cc6)c(c35)-c3c(C)c(Cl)c(c(Cl)c3C)O[C@H](CN3CCN(C)CC3)CO4)n2)CC1 (single isomer, unassigned) [Example 86, (7R,16R)-19,23-dichloro-10-({2-[(4S*)-4-fluoro-4-{[2-(2-methoxyethoxy)ethoxy]methyl}cyclohex-1-en-1-yl]pyrimidin-4-yl}methoxy)-1-(4-fluorophenyl)-20,22-dimethyl-16-[(4-methylpiperazin-1-yl)methyl]-7,8,15,16-tetrahydro-18,21-etheno-13,9-(metheno)-6,14,17-trioxa-2-thia-3,5-diazacyclononadeca[1,2,3-cd]indene-7-carboxylic Acid] | 0.102 | 0.008 | 0.000105 | 0.000258 |
| Cc1c(Cl)c2c(Cl)c(C)c1-c1c(-c3ccc(F)cc3)sc3ncnc(c13)O[C@@H](C(=O)O)Cc1cc(ccc1OCc1ccnc(-c3cccc(S(=O)(=O)N4CCOCC4)c3)n1)OC[C@@H](CN1CCN(C)CC1)O2 [Example 149, (7R,16R)-19,23-dichloro-1-(4-fluorophenyl)-20,22-dimethyl-16-[(4-methylpiperazin-1-yl)methyl]-10-({2-[3-(morpholine-4-sulfonyl)phenyl]pyrimidin-4-yl}methoxy)-7,8,15,16-tetrahydro-18,21-etheno-13,9-(metheno)-6,14,17-trioxa-2-thia-3,5-diazacyclononadeca[1,2,3-cd]indene-7-carboxylic Acid] | 0.14 | 0.006 | 0.000363 | 0.0014 |
| COCCOCCOCCOCc1cc(OC[C@H]2COCCO2)ccc1-c1nccc(COc2ccc3cc2C[C@H](C(=O)O)Oc2ncnc4sc(-c5ccc(F)cc5)c(c24)-c2c(C)c(Cl)c(c(Cl)c2C)O[C@H](CN2CCN(C)CC2)CO3)n1 [Example 155, (7R,16R)-19,23-dichloro-10-({2-[4-{[(2R)-1,4-dioxan-2-yl]methoxy}-2-(2,5,8,11-tetraoxadodecan-1-yl)phenyl]pyrimidin-4-yl}methoxy)-1-(4-fluorophenyl)-20,22-dimethyl-16-[(4-methylpiperazin-1-yl)methyl]-7,8,15,16-tetrahydro-18,21-etheno-13,9-(metheno)-6,14,17-trioxa-2-thia-3,5-diazacyclononadeca[1,2,3-cd]indene-7-carboxylic Acid] | 0.03 | 0.001 | 0.000188 | 0.000187 |
| COCCOCCOCCOC[C@@H]1CN(c2nccc(COc3ccc4cc3C[C@H](C(=O)O)Oc3ncnc5sc(-c6ccc(F)cc6)c(c35)-c3c(C)c(Cl)c(c(Cl)c3C)O[C@H](CN3CCN(C)CC3)CO4)n2)CCO1 [Example 68, (7R,16R)-19,23-dichloro-1-(4-fluorophenyl)-20,22-dimethyl-16-[(4-methylpiperazin-1-yl)methyl]-10-({2-[(2S)-2-(2,5,8,11-tetraoxadodecan-1-yl)morpholin-4-yl]pyrimidin-4-yl}methoxy)-7,8,15,16-tetrahydro-18,21-etheno-13,9-(metheno)-6,14,17-trioxa-2-thia-3,5-diazacyclononadeca[1,2,3-cd]indene-7-carboxylic Acid] | 0.209 | 0.031 | 0.000426 | 0.000938 |
| Cc1c(Cl)c2c(Cl)c(C)c1-c1c(-c3ccc(F)cc3)sc3ncnc(c13)O[C@@H](C(=O)O)Cc1cc(ccc1OCc1ccnc(C3=CCC(CC(=O)O)CC3)n1)OC[C@@H](CN1CCN(C)CC1)O2 (single isomer, unassigned) [Example 35, (7R,16R)-10-({2-[(4S*)-4-(carboxymethyl)cyclohex-1-en-1-yl]pyrimidin-4-yl}methoxy)-19,23-dichloro-1-(4-fluorophenyl)-20,22-dimethyl-16-[(4-methylpiperazin-1-yl)methyl]-7,8,15,16-tetrahydro-18,21-etheno-13,9-(metheno)-6,14,17-trioxa-2-thia-3,5-diazacyclononadeca[1,2,3-cd]indene-7-carboxylic Acid] | 0.113 | 0.007 | 0.01 | 0.017 |
| COCCOCCOCCOCCCN1CCN(c2nccc(COc3ccc4cc3C[C@H](C(=O)O)Oc3ncnc5sc(-c6ccc(F)cc6)c(c35)-c3c(C)c(Cl)c(c(Cl)c3C)O[C@H](CN3CCN(C)CC3)CO4)n2)CC1 [Example 53, (7R,16R)-19,23-dichloro-1-(4-fluorophenyl)-20,22-dimethyl-16-[(4-methylpiperazin-1-yl)methyl]-10-({2-[4-(2,5,8,11-tetraoxatetradecan-14-yl)piperazin-1-yl]pyrimidin-4-yl}methoxy)-7,8,15,16-tetrahydro-18,21-etheno-13,9-(metheno)-6,14,17-trioxa-2-thia-3,5-diazacyclononadeca[1,2,3-cd]indene-7-carboxylic Acid] | 0.632 | 0.301 | 0.0042 | 0.00571 |
| Cc1c(Cl)c2c(Cl)c(C)c1-c1c(-c3ccc(F)cc3)sc3ncnc(c13)O[C@@H](C(=O)O)Cc1cc(ccc1OCc1ccnc(N3CCC(C)(CC(=O)O)CC3)n1)OC[C@@H](CN1CCN(C)CC1)O2 [Example 41, (7R,16R)-10-({2-[4-(carboxymethyl)-4-methylpiperidin-1-yl]pyrimidin-4-yl}methoxy)-19,23-dichloro-1-(4-fluorophenyl)-20,22-dimethyl-16-[(4-methylpiperazin-1-yl)methyl]-7,8,15,16-tetrahydro-18,21-etheno-13,9-(metheno)-6,14,17-trioxa-2-thia-3,5-diazacyclononadeca[1,2,3-cd]indene-7-carboxylic Acid] | 1.05 | 0.078 | 0.0159 | 0.019 |
| COCC(COC)Oc1nccc(COc2ccc3cc2C[C@H](C(=O)O)Oc2ncnc4sc(-c5ccc(F)cc5)c(c24)-c2c(C)c(Cl)c(c(Cl)c2C)O[C@H](CN2CCN(C)CC2)CO3)n1 [Example 141, (7R,16R)-19,23-dichloro-10-({2-[(1,3-dimethoxypropan-2-yl)oxy]pyrimidin-4-yl}methoxy)-1-(4-fluorophenyl)-20,22-dimethyl-16-[(4-methylpiperazin-1-yl)methyl]-7,8,15,16-tetrahydro-18,21-etheno-9,13-(metheno)-6,14,17-trioxa-2-thia-3,5-diazacyclononadeca[1,2,3-cd]indene-7-carboxylic Acid] | 0.363 | 0.008 | 0.000441 | 0.000503 |
| COCCOCCOCC1CN(c2nccc(COc3ccc4cc3C[C@@H](C(=O)O)Oc3ncnc5sc(-c6ccc(F)cc6)c(c35)-c3c(C)c(Cl)c(c(Cl)c3C)O[C@H](CN3CCN(C)CC3)CO4)n2)C1 [Example 140, (7S,16R)-19,23-dichloro-1-(4-fluorophenyl)-10-{[2-(3-{[2-(2-methoxyethoxy)ethoxy]methyl}azetidin-1-yl)pyrimidin-4-yl]methoxy}-20,22-dimethyl-16-[(4-methylpiperazin-1-yl)methyl]-7,8,15,16-tetrahydro-18,21-etheno-9,13-(metheno)-6,14,17-trioxa-2-thia-3,5-diazacyclononadeca[1,2,3-cd]indene-7-carboxylic Acid] | 166 | 34.9 | 0.242 | 0.244 |
| COCCOCCOCCOCC1(c2nccc(COc3ccc4cc3C[C@H](C(=O)O)Oc3ncnc5sc(-c6ccc(F)cc6)c(c35)-c3c(C)c(Cl)c(c(Cl)c3C)O[C@H](CN3CCN(C)CC3)CO4)n2)CC1 [Example 29, (7R,16R)-19,23-dichloro-1-(4-fluorophenyl)-20,22-dimethyl-16-[(4-methylpiperazin-1-yl)methyl]-10-({2-[1-(2,5,8,11-tetraoxadodecan-1-yl)cyclopropyl]pyrimidin-4-yl}methoxy)-7,8,15,16-tetrahydro-18,21-etheno-13,9-(metheno)-6,14,17-trioxa-2-thia-3,5-diazacyclononadeca[1,2,3-cd]indene-7-carboxylic Acid] | 1.21 | 0.204 | 0.000894 | 0.000942 |
| Cc1c(Cl)c2c(Cl)c(C)c1-c1c(-c3ccc(F)cc3)sc3ncnc(c13)O[C@@H](C(=O)O)Cc1cc(ccc1OCc1ccnc(-c3ccc(OC[C@H]4CN(C)CCO4)cc3)n1)OC[C@@H](CN1CCN(C)CC1)O2 [Example 158, (7R,16R)-19,23-dichloro-1-(4-fluorophenyl)-20,22-dimethyl-10-{[2-(4-{[(2R)-4-methylmorpholin-2-yl]methoxy}phenyl)pyrimidin-4-yl]methoxy}-16-[(4-methylpiperazin-1-yl)methyl]-7,8,15,16-tetrahydro-18,21-etheno-9,13-(metheno)-6,14,17-trioxa-2-thia-3,5-diazacyclononadeca[1,2,3-cd]indene-7-carboxylic Acid] | 0.41 | 0.003 | 0.000258 | 0.00131 |
